Measured values reported in patent US20240140895A1, “NOVEL AROMATIC MOLECULES” (XENIOPRO GmbH, priority 2018, published 2024).

Key:
Assay type in all cases: cell-based
[1] = system: BHY cells (human oral squamous cell carcinoma cells); assay: Proliferation assay (alamarBlue) with BHY cells; conditions: read-out: Activity Range: weighted arithmetic mean (AVEw) of normalized fluorescence intensity relative to DMSO basis level 1.0
Source text: (§1) The antiproliferative activities of compounds falling under formula (Ia), (Tb) and (Ic), respectively, were investigated on cells or cell lines originating from a disorder of the haematopoietic system, including the myeloid cell compartment and the lymphoid cell compartment (T-cells and B-cells), the neuroendocrine system, the cervix, the breast, the ovaries, the lung, the gastrointestinal tract, and the mucosal epithelium, as well as from the skin epithelium and from the muscle. To this end, HL-60 cells, NB-4 cells, HH cells, RPMI-8402 cells, TANOUE cells, TT cells, HeLa cells, MDA-MB-231 cells, FU-OV-1 cells, LOU-NH91 cells, 23132/87 cells, CAL-27 cells, BHY cells, SCC-25 cells, A-431 cells, human primary epidermal keratinocytes (HPEK), and C2C12 cells were seeded into 96-well plates suitable for fluorescence assays (CORNING #3598) at following initial cell numbers: 1000 cells per well for HL-60; 1000 cells per well for NB-4; 5000 cells per well for HH; 5000 cells per well for RPMI-8402; 1500 cells per well for TANOUE; 9000 cells per well for TT; 2000 cells per well for HeLa; 3000 cells per well for MDA-MB-231; 3000 cells per well for FU-OV-1; 4000 cells per well for LOU-NH91; 2000 cells per well for 23132/87; 2000 cells per well for CAL-27; 1500 cells per well for BHY; 1500 cells per well for SCC-25; 700 cells per well for A-431; 1000 cells per well for HPEK; 500 cells per well for C2-C12. The cells were treated with compounds at indicated final concentrations (diluted from the 1000× stock-solutions in DMSO to a final DMSO concentration of 0.1% v/v in H2O (Water For Injection, WFI, Fisherscientific #10378939)) or with the empty carrier DMSO at 0.1% v/v as control for 5 days. At day 5 after starting the treatments the cells were subjected to the alamarBlue® Proliferation Assay (Bio-Rad Serotec GmbH, BUF012B) according to the protocol of the manufacturer. The readout was taken with a multi-well plate-reader in the fluorescence mode with applying a filter for excitation at 560 nm (band width 10 nm) and for emission at 590 nm (band width 10 nm). Control treatments for growth inhibition with commercial compounds such as Methotrexate (MTREX) and Resveratrol (RES) were included on every plate. Some of the test compounds of the present invention were obtained and applied as their salts. According cases are indicated in the column “Specification” in Table 30 to Table 62 and by their sum formula in Table 63.
(§2) The assays were performed in duplicate or more replicates of independent single experiments each containing a six-fold replicate for every condition. For every individual plate, the measured fluorescence intensity values of the conditions with compound treatment were normalized against the corresponding equally weighted arithmetic mean of the fluorescence intensity values of the six DMSO treated control wells in order to obtain the relative values to a baseline level of 1.0.
(§3) Two independent outlier analyses were performed according to the methods by Peirce and Chauvenet (Ross, Journal of Engineering Technology 2003, 1-12). Outliers confirmed by at least one of the methods were excluded from the calculations but not more than one value out of six per compound within a single experiment. The weighted arithmetic mean (here abbreviated as AVEw) for each compound was calculated from the normalized values over all independent replicates of the single experiments comprising the six replicates each. The corresponding standard deviation for the weighted arithmetic mean was calculated according to the method described by Bronstein et al. (Bronstein, Semendjajew, Musiol, Muhlig, Taschenbuch der Mathematik, 5th edition 2001 (German), publisher: Verlag Harri Deutsch, Frankfurt am Main and Thun) and was combined with the Gauβ′ error propagation associated with the performed calculation for the normalization. The resulting standard deviation is herein referred to as “combined standard deviation”. […]

[2] = system: HPEKp cells (human epidermal keratinocyte progenitors, pooled); assay: Proliferation assay (alamarBlue) with HPEKp cells; conditions: compound at 10 μM, read-out: Activity Range: weighted arithmetic mean (AVEw) of normalized fluorescence intensity, relative to DMSO basis level 1.0
Source text: as §1, §2, §3

[3] = system: MDA-MB-231 cells (human breast carcinoma cells); assay: Proliferation assay (alamarBlue) with MDA-MB-231 cells; conditions: Homo sapiens, read-out: Activity Range: weighted arithmetic mean (AVEw) of normalized fluorescence intensity relative to DMSO basis level 1.0
Source text: as §1, §2, §3

[4] = system: RPMI-8402 cells (human T cell acute lymphoblastic leukemia cells); assay: Proliferation assay (alamarBlue) with RPMI-8402 cells; conditions: Homo sapiens, read-out: Activity Range: weighted arithmetic mean (AVEw) of normalized fluorescence intensity relative to DMSO basis level 1.0
Source text: as §1, §2, §3

[5] = system: A-431 cells (human epidermoid squamous cell carcinoma cells); assay: Proliferation assay (alamarBlue) with A-431 cells; conditions: Homo sapiens, 20 μM, read-out: Activity Range: weighted arithmetic mean (AVEw) of normalized fluorescence intensity relative to DMSO basis level 1.0
Source text: as §1, §2, §3

[6] = system: HL-60 cells (human acute myeloid leukemia cells); assay: Proliferation assay (alamarBlue) with HL-60 cells; conditions: Homo sapiens, Table 30, compound at 20 μM, read-out: Activity Range (AVEw, weighted arithmetic mean of normalized fluorescence intensity, DMSO = 1.0)
Source text: as §1, §2, §3

[7] = system: NB-4 cells (human acute promyelocytic leukemia cells); assay: Proliferation assay (alamarBlue) with NB-4 cells; conditions: Homo sapiens, Table 32, compound at 20 μM, read-out: Activity Range (AVEw, weighted arithmetic mean of normalized fluorescence intensity, DMSO = 1.0)
Source text: as §1, §2, §3

[8] = system: C2C12 cells (murine myoblast cells); assay: Proliferation assay (alamarBlue) with C2C12 cells; conditions: Mus musculus, compound at 20 μM, read-out: Activity Range: weighted arithmetic mean (AVEw) of normalized fluorescence intensity, relative to DMSO basis level 1.0
Source text: as §1, §2, §3

[9] = system: TANOUE cells (human B cell leukemia cells); assay: Proliferation assay (alamarBlue) with TANOUE cells; conditions: Homo sapiens, B-cell, read-out: Activity Range: weighted arithmetic mean (AVEw) of normalized fluorescence intensity relative to DMSO basis level 1.0
Source text: as §1, §2, §3

[10] = system: SCC-25 cells (human tongue squamous cell carcinoma cells); assay: Proliferation assay (alamarBlue) with SCC-25 cells; conditions: Homo sapiens, read-out: Activity Range: weighted arithmetic mean (AVEw) of normalized fluorescence intensity relative to DMSO basis level 1.0
Source text: as §1, §2, §3

[11] = system: CAL-27 cells (human tongue squamous cell carcinoma cells); assay: Proliferation assay (alamarBlue) with CAL-27 cells; conditions: read-out: Activity Range: weighted arithmetic mean (AVEw) of normalized fluorescence intensity relative to DMSO basis level 1.0
Source text: as §1, §2, §3

[12] = system: HH cells (human cutaneous T-cell lymphoma cells); assay: Proliferation assay (alamarBlue) with HH cells; conditions: Table 34, compound at 20 μM, read-out: Activity Range (AVEw, weighted arithmetic mean of normalized fluorescence intensity, DMSO = 1.0)
Source text: as §1, §2, §3

[13] = system: 23132/87 cells (human gastric adenocarcinoma cells); assay: Proliferation assay (alamarBlue) with 23132/87 cells; conditions: read-out: Activity Range: weighted arithmetic mean (AVEw) of normalized fluorescence intensity relative to DMSO basis level 1.0
Source text: as §1, §2, §3

| Compound | activity at 20 µM [1] | activity at 10 µM [2] | activity at 20 µM [3] | activity at 20 µM [4] | activity at 20 µM [5] | activity at 20 µM [6] | activity at 20 µM [7] | activity at 20 µM [8] | activity at 20 µM [9] | activity at 20 µM [10] | activity at 20 µM [11] | activity at 20 µM [12] | activity at 20 µM [13] |
| --- | --- | --- | --- | --- | --- | --- | --- | --- | --- | --- | --- | --- | --- |
| OCc1ccc(Oc2ccc(C3CCCCC3)cc2)cc1 [XPA-0006, (4-(4-cyclohexylphenoxy)phenyl)methanol] | 80 to 90% | 40 to 60% | 60 to 70% | 60 to 70% | 70 to 80% | 80 to 90% | – | – | – | – | – | – | – |
| O=Cc1ccc(Oc2ccc(C34CC5CC(CC(C5)C3)C4)cc2)cc1 [XPA-0028, 4-(4-(adamantan-1-yl)phenoxy)benzaldehyde] | – | 0 to 20% | 70 to 80% | 40 to 60% | 80 to 90% | 40 to 60% | 40 to 60% | 60 to 70% | 0 to 20% | 80 to 90% | – | – | – |
| CN1CCC(c2ccc(Oc3ccc(C(=O)O)cc3)cc2)CC1 [XPA-0036, 4-(4-(1-methylpiperidin-4-yl)phenoxy)benzoic acid] | – | – | 80 to 90% | – | – | – | – | – | – | – | – | – | – |
| CCOC(=O)c1ccc(Oc2ccc(CCN(C)C)cc2)cc1 [XPA-0060, ethyl 4-(4-(2-(dimethylamino)ethyl)phenoxy)benzoate] | 70 to 80% | 20 to 40% | 40 to 60% | 40 to 60% | 80 to 90% | – | 80 to 90% | 40 to 60% | – | 20 to 40% | 40 to 60% | 60 to 70% | – |
| CCOC(=O)c1ccc(Oc2ccc(C3CCOCC3)cc2)cc1 [XPA-0063, ethyl 4-(4-(tetrahydro-2H-pyran-4-yl)phenoxy)benzoate] | – | – | 80 to 90% | 80 to 90% | – | – | – | – | 80 to 90% | – | – | – | – |
| CCOC(=O)c1ccc(Oc2ccc(C3CCN(C)CC3)cc2)cc1 [XPA-0064, ethyl 4-(4-(1-methylpiperidin-4-yl)phenoxy)benzoate] | 0 to 20% | 0 to 20% | 40 to 60% | 0 to 20% | 0 to 20% | 70 to 80% | 20 to 40% | 0 to 20% | 0 to 20% | 0 to 20% | 0 to 20% | 40 to 60% | 70 to 80% |
| OC1(c2ccc(Oc3ccc(C45CC6CC(CC(C6)C4)C5)cc3)cc2)COC1 [XPA-0140, 3-(4-(4-((3r,5r,7r)-adamantan-1-yl)phenoxy)phenyl)oxetan-3-ol] | 70 to 80% | 0 to 20% | 20 to 40% | 20 to 40% | 40 to 60% | 0 to 20% | 60 to 70% | 70 to 80% | 0 to 20% | 20 to 40% | 20 to 40% | 70 to 80% | 70 to 80% |
| COC1(c2ccc(Oc3ccc(C4CCCCC4)cc3)cc2)COC1 [XPA-0146, 3-(4-(4-cyclohexylphenoxy)phenyl)-3-methoxyoxetane] | 70 to 80% | 60 to 70% | 0 to 20% | 20 to 40% | 20 to 40% | 20 to 40% | 80 to 90% | – | 0 to 20% | – | 20 to 40% | – | 60 to 70% |
| COC1(c2ccc(Oc3ccc(C45CC6CC(CC(C6)C4)C5)cc3)cc2)CN(C)C1 [XPA-0238, 3-(4-(4-((3r,5r,7r)-adamantan-1-yl)phenoxy)phenyl)-3-methoxy-1-methylazetidine] | 0 to 20% | 40 to 60% | 0 to 20% | 0 to 20% | 0 to 20% | 0 to 20% | 0 to 20% | 0 to 20% | 0 to 20% | 0 to 20% | 0 to 20% | 0 to 20% | 0 to 20% |
| C=Cc1cc(C2CCCCC2)ccc1Oc1ccc(C(=O)OCC)cc1 [XPA-1284, ethyl 4-(4-cyclohexyl-2-vinylphenoxy)benzoate] | – | 0 to 20% | 20 to 40% | 20 to 40% | 40 to 60% | 0 to 20% | 20 to 40% | 20 to 40% | 0 to 20% | 70 to 80% | 60 to 70% | 60 to 70% | 70 to 80% |
| CCOC(=O)c1ccc(Oc2ccc(C3CCCCC3)cc2C2CO2)cc1 (stereo not shown) [XPA-1290, ethyl 4-(4-cyclohexyl-2-(oxiran-2-yl)phenoxy)benzoate] | – | 0 to 20% | 70 to 80% | – | – | – | – | – | 80 to 90% | – | – | – | – |
| CCOC(=O)c1ccc(Oc2ccc(C3CCCCC3)cc2C2CC2)cc1 [XPA-1295, ethyl 4-(4-cyclohexyl-2-cyclopropylphenoxy)benzoate] | – | 70 to 80% | – | – | – | – | – | – | – | – | – | – | – |
| CCOC(=O)c1ncc(Oc2ccc(C34CC5CC(CC(C5)C3)C4)cc2)cn1 [XPA-1303, ethyl 5-(4-((3r,5r,7r)-adamantan-1-yl)phenoxy)pyrimidine-2-carboxylate] | – | – | – | 80 to 90% | – | – | – | – | 80 to 90% | – | – | – | – |
| c1ccc(COC2(c3ccc(Oc4ccc(C5CCCCC5)cc4)cc3)CNC2)cc1 [XPA-1317, 3-(benzyloxy)-3-(4-(4-cyclohexylphenoxy)phenyl)azetidine] | 0 to 20% | 0 to 20% | 0 to 20% | 0 to 20% | 0 to 20% | 0 to 20% | 0 to 20% | 0 to 20% | 0 to 20% | 0 to 20% | 0 to 20% | 0 to 20% | 0 to 20% |
